# Source: patent US20150238446A1, “NEW TREATMENT OF FISH WITH A NANOSUS PENS ION OF LUFENURON OR HEXAFLUMURON” (Novartis AG, priority 2012, published 2015)
# Assays:
# [1] = Stability testing of oily lufenuron or hexaflumuron formulations; type: physicochemical; details: in organic solvents/media
# Description: WO99/063824 discloses the use of hexaflumuron and lufenuron, both members of the chemical class of benzoylureas, in the control of sea lice infestations on fish. Hexaflumurone is applied to the fish orally, via bath treatment or via injection, lufenuron is proposed exclusively for injection. Oily injectable formulations of the two active ingredients, in particular those comprising, in addition, a vaccine against furunculosis, show activity against sea lice for 128 days or in case of hexaflumuron even longer. […] The resulting low shelf life make them unsuited for commercial use. […] In addition, as both hexaflumuron and lufenuron have a strong tendency to aggregate and form sediments in an aqueous environment, the handling of water-based injectables is difficult and cumbersome. So it is not surprising that no commercial lufenuron or hexaflumuron sea lice product has made it to the market until now.
# [2] = cited from earlier work
# [3] = test system: sea lice; details: cited from earlier work; for duration of activity against sea lice: oily injectable formulations, in particular with a vaccine against furunculosis (WO99/063824)
# [4] = test system: L. salmonis; experiment: In vivo test in Atlantic salmon, natural sea lice infestation, pre-adult and adult count; details: nanosuspension injected
# Description: Three groups of 150 salmon (Atlantic Salmon, S. salar) of an average weight 200 g were injected with an amount of the above nanosuspension (a) equivalent to 25 mg (cage 1), 50 mg (cage 2) or 75 mg lufenuron per kg salmon (cage 3). A fourth cage containing 150 salmon of average weight 200 g was added to the study as a non-treated control group.
# After treatment, the fish were exposed to natural sea lice infestation for a period of 8 months. During the study the water temperature varied between 4 and 12° C. Sea louse numbers were assessed on a monthly basis until month 8. Counts were conducted on 10 fish at each sampling occasion. The numbers of pre-adults and adult L. salmonis were recorded for each fish. Efficacy was calculated using the formula:
# % Efficacy=100−(100×mean of treatment group/mean of control).
compound,measurement,setting,value
"O=C(NC(=O)c1c(F)cccc1F)Nc1cc(Cl)c(OC(F)(F)C(F)F)c(Cl)c1 [hexaflumuron, 1-[3,5-dichloro-4-(1,1,2,2-tetrafluoroethoxyl)phenyl]-3-(2,6-difluorobenzoyl)urea]",chemical stability of the active ingredient,[1],chemically instable
same,water-solubility,[2],≤ 0.027 µg/mL
same,performance in vivo against sea lice,[3]; hexaflumuron containing aqueous suspension (WO99/063824),poor performance
same,duration of activity against sea lice,[3],> 128 days
"O=C(NC(=O)c1c(F)cccc1F)Nc1cc(Cl)c(OC(F)(F)C(F)C(F)(F)F)cc1Cl (centres unmarked) [lufenuron, N-{[2,5-Dichlor-4-(1,1,2,3,3,3-hexafluorpropoxyl)phenyl]carbamoyl}-2,6-difluorbenzamid]",% efficacy pre-adult and adult count,"[4]; 25 mg/kg lufenuron, 1 month",100%
same,% efficacy pre-adult and adult count,"[4]; 25 mg/kg lufenuron, 2 month",95%
same,% efficacy pre-adult and adult count,"[4]; 25 mg/kg lufenuron, 3 month",100%
same,% efficacy pre-adult and adult count,"[4]; 25 mg/kg lufenuron, 4 month",96%
same,% efficacy pre-adult and adult count,"[4]; 25 mg/kg lufenuron, 5 month",100%
same,% efficacy pre-adult and adult count,"[4]; 25 mg/kg lufenuron, 6 month",81%
same,duration of complete protection of the fish against sea lice infestation,[4]; 25 mg/kg,at least 5 month
same,duration of complete protection of the fish against sea lice infestation,"[4]; 50 mg/kg fish, until the end of the study",8 month
same,% efficacy pre-adult and adult count,"[4]; 50 mg/kg lufenuron, 1 month",90%
same,% efficacy pre-adult and adult count,"[4]; 50 mg/kg lufenuron, 2 month",100%
same,% efficacy pre-adult and adult count,"[4]; 50 mg/kg lufenuron, 3 month",100%
same,% efficacy pre-adult and adult count,"[4]; 50 mg/kg lufenuron, 4 month",100%
same,% efficacy pre-adult and adult count,"[4]; 50 mg/kg lufenuron, 5 month",97%
same,% efficacy pre-adult and adult count,"[4]; 50 mg/kg lufenuron, 6 month",96%
same,% efficacy pre-adult and adult count,"[4]; 50 mg/kg lufenuron, 7 month",98%
same,% efficacy pre-adult and adult count,"[4]; 50 mg/kg lufenuron, 8 month",98%
same,% efficacy pre-adult and adult count,"[4]; 75 mg/kg lufenuron, 1 month",100%
same,% efficacy pre-adult and adult count,"[4]; 75 mg/kg lufenuron, 2 month",100%
same,% efficacy pre-adult and adult count,"[4]; 75 mg/kg lufenuron, 3 month",100%
same,% efficacy pre-adult and adult count,"[4]; 75 mg/kg lufenuron, 4 month",96%
same,% efficacy pre-adult and adult count,"[4]; 75 mg/kg lufenuron, 5 month",100%
same,% efficacy pre-adult and adult count,"[4]; 75 mg/kg lufenuron, 6 month",100%
same,% efficacy pre-adult and adult count,"[4]; 75 mg/kg lufenuron, 7 month",98%
same,% efficacy pre-adult and adult count,"[4]; 75 mg/kg lufenuron, 8 month",100%
same,duration of complete protection of the fish against sea lice infestation,"[4]; 75 mg/kg, until the end of the study",8 month
same,chemical stability of the active ingredient,[1],chemically instable
same,water-solubility,[2],≤ 0.06 µg/mL
same,duration of activity against sea lice,[3],128 days
